From patent US11834663B2, “Fibrotic treatment” (Monash University, priority 2015, dated 2023)

Test system: livers of WT mice on high salt diet
Experiment: High salt diet-induced liver fibrosis reversal model (Masson's trichrome)
Type: in vivo, mouse
Details: WT mice on 5% NaCl diet 8 weeks, FIG. 28
Description: Male C57BL/6J wild type (WT) mice aged approximately 4 to 6 months weighing 30-40 grams were obtained from Monash Animal Research Laboratory. Animals were housed in the Animal House in the Department of Pharmacology, Monash University, in standard cages where they were initially maintained on a normal diet. The housing was maintained at roughly 21° C.±5° C. with mice exposed to a 12 hour light/dark cycle, and access to food and water ad libitum. Experimental procedures undertaken were approved and certified by the School of Biomedical Sciences (SOBS) Animal Ethics Committee of Monash University (2013/118).
A high-salt diet (5% salt) model is a clinically relevant and disease-reversal model which can replicate the high salt intake by humans which is currently a growing problem in the developed countries. High salt intake induces changes in the cardiovascular system and induces remodelling and fibrosis in the heart and liver. […]
Quantification of liver fibrosis was performed using images captured with the Aperio scanner (Monash Histology Platform, Monash University), with ×5 magnification. […] Percentage of interstitial and perivascular collagen was analysed and quantified using ImageJ 1.48 software (Java, NIH), and the percentage from 5 random fields of view were averaged for final percentage of collagen for that particular animal. […]

Compound: CCOC(=O)C1=C(NC(C)=O)Oc2cc(O)ccc2C1c1cccnc1 (centres unmarked) [HFI-419]
- HSD-induced collagen deposition in liver (Masson's trichrome) (HFI-419 0.72 mg/kg/d s.c. for last 4 weeks): significantly reversed HSD-induced collagen deposition to the same level seen in mice fed a normal chow diet
- indicators of steatosis in the liver (HFI-419 for last 4 weeks): markedly reduced
